# Reference: patent US20100267561A1, “HERBICIDAL PYRIDAZINONE DERIVATIVES” (priority 2007, published 2010)
# Key:
# Assay type in all cases: in vivo
# [1] = system: bermudagrass (Cynodon dactylon); assay: Test B pre-/postemergence plant response; conditions: for Bermudagrass plant response rating: 8 g ai/ha
# How it was run: (§1)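 Visual scoring from 0 (no effect) to 100 (complete control) against untreated controls was done 13 to 15 days after greenhouse treatment. Chemicals were formulated in a surfactant-containing non-phytotoxic solvent and applied to soil preemergence or to 1- to 4-leaf (2-18 cm) plants postemergence.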
# [2] = system: blackgrass (Alopecurus myosuroides); assay: Test B pre-/postemergence plant response; conditions: for Blackgrass plant response rating: 8 g ai/ha
# How it was run: as §1
# corn (Zea mays) = assay: Test B pre-/postemergence plant response
# How it was run: as §1
# [3] = system: eastern black (E.B.) nightshade (Solanum ptycanthum); assay: Test B pre-/postemergence plant response; conditions: Preemergence; for Nightshade, E. B. plant response rating: scale 0 to 100
# How it was run: as §1
# [4] = system: giant foxtail (Setaria faberii); assay: Test B pre-/postemergence plant response
# How it was run: as §1
# [5] = system: lambsquarters (Chenopodium album); assay: Test B pre-/postemergence plant response; conditions: for Lambsquarters plant response rating: postemergence, 0-100 scale; for Plant response rating, Lambsquarters: Postemergence
# How it was run: as §1
# [6] = system: morningglory (Ipomoea coccinea); assay: Test B pre-/postemergence plant response
# How it was run: as §1
# [7] = system: velvetleaf (Abutilon theophrasti); assay: Test B pre-/postemergence plant response
# How it was run: as §1
# wild oat (Avena fatua) = assay: Test B pre-/postemergence plant response
# How it was run: as §1
# [8] = system: yellow nutsedge (Cyperus esculentus); assay: Test B pre-/postemergence plant response
# How it was run: as §1
# [9] = system: canarygrass (Phalaris minor); assay: Test B postemergence plant response; conditions: for Plant response rating, Canarygrass: Postemergence
# How it was run: (§2)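 Visual injury ratings on a 0–100 scale, where 100 means complete control, were made 13 to 15 days after postemergence treatment of greenhouse-grown plants at the 1- to 4-leaf stage.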
# [10] = system: chickweed (Stellaria media); assay: Test B postemergence plant response; conditions: for Plant response rating, Chickweed: Postemergence
# How it was run: as §2
# [11] = system: windgrass (Apera spica-venti); assay: Test B postemergence plant response; conditions: for Windgrass plant response rating: postemergence, 0-100 scale; for Plant response rating, Windgrass: Postemergence
# How it was run: as §2
# [12] = system: winter barley (Hordeum vulgare); assay: Test B postemergence plant response; conditions: for Plant response rating, Barley: Postemergence, scale 0 to 100, 0 no effect, 100 complete control
# How it was run: as §2
# [13] = system: barnyardgrass (Echinochloa crus-galli); assay: Test B flooded paddy test plant response
# How it was run: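 Rice, umbrella sedge, ducksalad and barnyardgrass at 2-leaf stage; pots flooded to 3 cm, compounds applied into paddy water, depth held throughout. Greenhouse 13 to 15 days, then visual rating vs untreated controls on 0–100 scale (0 no effect, 100 complete control); dash means no test result.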
# [14] = Postemergence, 16 g ai/ha, scale 0 to 100
# [15] = Postemergence, 31 g ai/ha, scale 0 to 100
# [16] = Postemergence, 62 g ai/ha, scale 0 to 100, 0 no effect, 100 complete control
# [17] = Preemergence, 16 g ai/ha, scale 0 to 100 (0 no effect, 100 complete control)
# [18] = Preemergence, 31 g ai/ha, scale 0 to 100 (0 no effect, 100 complete control)
# [19] = Preemergence, 62 g ai/ha, 0 to 100 scale, 0 no effect, 100 complete control
# [20] = 8 g ai/ha, postemergence, 0-100 scale
# [21] = Preemergence, 8 g ai/ha, scale 0 to 100
# [22] = Preemergence, 16 g ai/ha, scale 0 to 100
# [23] = 62 g ai/ha, scale 0 to 100, 0 no effect, 100 complete control
# [24] = 16 g ai/ha, postemergence, 0-100 scale
smiles,measurement,setting,value
Cc1cc(-c2ccc(Cl)cc2)nn1-c1c(OC(=S)N(C)C)cnn(C)c1=O [Compound 69],Bermudagrass plant response rating,"[1]; postemergence, 0-100 scale",20
same,"Plant response rating, Bermudagrass",[1]; [14],65
same,"Plant response rating, Bermudagrass",[1]; [15],95
same,"Plant response rating, Bermudagrass",[1]; [16],98
same,Bermudagrass plant response rating,"[1]; Preemergence, scale 0 to 100 (0 no effect, 100 complete control)",0
same,"Plant response rating, Bermudagrass",[1]; [17],0
same,"Plant response rating, Bermudagrass",[1]; [18],0
same,"Plant response rating, Bermudagrass",[1]; [19],0
same,Blackgrass plant response rating,"[2]; postemergence, 0-100 scale",10
same,"Plant response rating, Blackgrass",[2]; [14],35
same,"Plant response rating, Blackgrass",[2]; [15],35
same,"Plant response rating, Blackgrass",[2]; [16],90
same,"Plant response rating, Blackgrass",[2]; [17],0
same,"Plant response rating, Blackgrass",[2]; [18],40
same,"Plant response rating, Blackgrass",[2]; [19],70
same,Blackgrass plant response rating,"[2]; Preemergence, scale 0 to 100",0
same,Corn plant response rating,corn (Zea mays); [20],0
same,"Plant response rating, Corn",corn (Zea mays); [14],0
same,"Plant response rating, Corn",corn (Zea mays); [15],0
same,"Plant response rating, Corn",corn (Zea mays); [16],20
same,"Plant response rating, Corn",corn (Zea mays); [18],0
same,"Plant response rating, Corn",corn (Zea mays); [19],0
same,Corn plant response rating,corn (Zea mays); [21],0
same,Corn plant response rating,corn (Zea mays); [22],0
same,"Plant response rating, Nightshade, E. B.","[3]; 31 g ai/ha, scale 0 to 100 (0 no effect, 100 complete control)",0
same,"Plant response rating, Nightshade, E. B.","[3]; 62 g ai/ha, 0 to 100 scale, 0 no effect, 100 complete control",0
same,"Nightshade, E. B. plant response rating",[3]; 8 g ai/ha,0
same,"Nightshade, E. B. plant response rating",[3]; 16 g ai/ha,0
same,"Foxtail, Giant plant response rating",[4]; [20],60
same,"Plant response rating, Foxtail, Giant",[4]; [14],85
same,"Plant response rating, Foxtail, Giant",[4]; [15],100
same,"Plant response rating, Foxtail, Giant",[4]; [16],100
same,"Plant response rating, Foxtail, Giant",[4]; [18],0
same,"Plant response rating, Foxtail, Giant",[4]; [19],0
same,"Foxtail, Giant plant response rating",[4]; [21],0
same,"Foxtail, Giant plant response rating",[4]; [22],0
same,Lambsquarters plant response rating,[5]; 8 g ai/ha,0
same,Lambsquarters plant response rating,[5]; 16 g ai/ha,0
same,"Plant response rating, Lambsquarters","[5]; 31 g ai/ha, scale 0 to 100",0
same,"Plant response rating, Lambsquarters",[5]; [23],0
same,Morningglory plant response rating,[6]; [20],0
same,Morningglory plant response rating,[6]; [24],0
same,"Plant response rating, Morningglory",[6]; [15],0
same,"Plant response rating, Morningglory",[6]; [16],0
same,"Plant response rating, Morningglory",[6]; [18],0
same,"Plant response rating, Morningglory",[6]; [19],0
same,Morningglory plant response rating,[6]; [21],0
same,Morningglory plant response rating,[6]; [22],0
same,Velvetleaf plant response rating,[7]; [20],0
same,Velvetleaf plant response rating,[7]; [24],0
same,"Plant response rating, Velvetleaf",[7]; [15],0
same,"Plant response rating, Velvetleaf",[7]; [16],0
same,"Plant response rating, Velvetleaf",[7]; [18],0
same,"Plant response rating, Velvetleaf",[7]; [19],0
same,Velvetleaf plant response rating,[7]; [21],0
same,Velvetleaf plant response rating,[7]; [22],0
same,"Oat, Wild plant response rating",wild oat (Avena fatua); [20],20
same,"Oat, Wild plant response rating",wild oat (Avena fatua); [24],40
same,"Plant response rating, Oat, Wild",wild oat (Avena fatua); [15],90
same,"Plant response rating, Oat, Wild",wild oat (Avena fatua); [16],90
same,"Plant response rating, Oat, Wild",wild oat (Avena fatua); [18],20
same,"Plant response rating, Oat, Wild",wild oat (Avena fatua); [19],40
same,"Oat, Wild plant response rating",wild oat (Avena fatua); [21],0
same,"Oat, Wild plant response rating",wild oat (Avena fatua); [22],0
same,"Nutsedge, Yellow plant response rating",[8]; [20],0
same,"Nutsedge, Yellow plant response rating",[8]; [24],0
same,"Plant response rating, Nutsedge, Yellow",[8]; [15],0
same,"Plant response rating, Nutsedge, Yellow",[8]; [16],0
same,"Plant response rating, Nutsedge, Yellow",[8]; [18],0
same,"Plant response rating, Nutsedge, Yellow",[8]; [19],0
same,"Nutsedge, Yellow plant response rating",[8]; [21],0
same,"Nutsedge, Yellow plant response rating",[8]; [22],0
same,Canarygrass plant response rating,[9]; [20],0
same,"Plant response rating, Canarygrass","[9]; 16 g ai/ha, scale 0 to 100",0
same,"Plant response rating, Canarygrass","[9]; 31 g ai/ha, scale 0 to 100",0
same,"Plant response rating, Canarygrass",[9]; [23],0
same,Chickweed plant response rating,[10]; [20],0
same,"Plant response rating, Chickweed","[10]; 16 g ai/ha, scale 0 to 100",0
same,"Plant response rating, Chickweed","[10]; 31 g ai/ha, scale 0 to 100",0
same,"Plant response rating, Chickweed",[10]; [23],0
same,Windgrass plant response rating,[11]; 8 g ai/ha,0
same,Windgrass plant response rating,[11]; 16 g ai/ha,0
same,"Plant response rating, Windgrass","[11]; 31 g ai/ha, scale 0 to 100",10
same,"Plant response rating, Windgrass",[11]; [23],40
same,Barley plant response rating,[12]; [20],0
same,"Plant response rating, Barley",[12]; 16 g ai/ha,0
same,"Plant response rating, Barley",[12]; 31 g ai/ha,0
same,"Plant response rating, Barley",[12]; 62 g ai/ha,0
same,"Plant response rating, Barnyardgrass","[13]; Flood (flooded paddy test), 62 g ai/ha, scale 0 to 100, 0 no effect, 100 complete control",0
same,"Plant response rating, Barnyardgrass","[13]; Flood (flooded paddy test), 125 g ai/ha, scale 0 to 100, 0 no effect, 100 complete control",0
same,"Plant response rating, Barnyardgrass","[13]; Flood (flooded paddy test), 250 g ai/ha, scale 0 to 100, 0 no effect, 100 complete control",0
same,"Plant response rating, Barnyardgrass","[13]; Flood, 31 g ai/ha, scale 0 to 100",0
